{"source": "patent US5618807A", "about": "“Method for preparing 17-substituted steroids useful in cancer treatment” (priority 1992, dated 1997)", "key": {"[1]": {"set-up": "species or system mice (male HWT)", "details": "mouse, in vivo, ip", "method": "(§1) Male HWT mice, 12 weeks old, were treated daily for 2 weeks, with 5 animals per treatment group. The test compounds were the compound of Examples 1 and 4 (as representative of compounds of the invention having the pregenolone-like and progesterone-like skeletons respectively). Ketoconazole was also tested at three different doses. The test compounds were made up in 5% benzyl alcohol, 95% safflower oil, and were given i.p.. In addition to an untreated control group of animals, there was also a solvent control group which received the same volume of liquid as the test group (5 ml/kg) but no test compound. All animals were sacrificed 24 hours after the last injection. Blood was collected by cardiac puncture into heparinized tubes, and the plasma used for RIA (radio immunoassay) of testosterone and luteinising hormone. The following organs were removed and weighed: adrenals, prostate, seminal vesicles, testes, kidneys. There was no significant body weight loss in any group of mice during the experiments.\nIn Ketoconazole-treated animals, adhesions were found in 2/5,2/5,4/5 of the low/middle/top dose groups. […] The livers were brown in the middle/top dose groups."}, "Male HWT mice": {"test_system": "Male HWT mice", "format": "in vivo", "details": "for Kidneys mean weight ± standard error: 2 weeks", "method": "as §1"}, "17α-Hydroxylase": {"molecular_target": "T1, 17α-Hydroxylase (Homo sapiens, UniProt P05093)", "T1 construct": "A microsomal preparation was prepared essentially as described by S. E. Barrie et al; from tissue; host or cells: human testis microsomes", "T1 sequence (P05093 1-508)": "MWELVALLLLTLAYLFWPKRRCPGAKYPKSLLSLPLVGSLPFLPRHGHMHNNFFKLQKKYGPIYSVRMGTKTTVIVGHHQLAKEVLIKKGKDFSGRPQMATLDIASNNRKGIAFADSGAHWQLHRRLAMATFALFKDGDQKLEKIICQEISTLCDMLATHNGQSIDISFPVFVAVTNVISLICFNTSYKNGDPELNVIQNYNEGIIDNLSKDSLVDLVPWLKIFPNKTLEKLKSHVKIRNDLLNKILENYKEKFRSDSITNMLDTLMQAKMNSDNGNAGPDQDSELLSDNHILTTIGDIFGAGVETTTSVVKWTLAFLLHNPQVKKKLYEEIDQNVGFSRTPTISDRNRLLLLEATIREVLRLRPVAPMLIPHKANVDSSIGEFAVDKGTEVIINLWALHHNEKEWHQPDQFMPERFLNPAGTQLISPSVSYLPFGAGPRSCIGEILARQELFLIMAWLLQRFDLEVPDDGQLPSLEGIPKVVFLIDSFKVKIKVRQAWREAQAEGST", "assay": "Determination of 17α-hydroxylase inhibition (human testicular microsomes, 3H-progesterone substrate)", "format": "biochemical", "details": "relative to 3-pyridyl compound", "description": "(§2) Human testes were obtained from previously untreated patients undergoing orchidectomy for prostatic cancer. The testes were decapsulated and stored in liquid nitrogen until use. […] The material was then thawed, finely chopped, and homogenised in 0.25M sucrose (5 ml/g wet weight) using a Potter homogeniser. The homogenate was centrifuged at 12000 g for 30 min, and then the microsomes were pelleted by spinning the supernatant at 100,000 g for 1 hr. The pellet was washed by being resuspended in 0.25M sucrose and repelleted. The microsomal pellet was then resuspended in 50 mM sodium phosphate pH 7.4/ glycerol (3/1 v/v) and stored in aliquots in liquid nitrogen.\n(§3) The basic assay mixture was EDTA (0.2 mM), dithiothreitol (DTT; 0.1 mM), NADPH (0.25 mM), glucose 6-phosphate dehydrogenase (G6PDH; 6.25 μg/ml), MgCl2 (1 mM), glucose 6-phosphate (G6P; 10 mM) and the substrate, ^3 H-progesterone (3 μM) in sodium phosphate (50 mm), pH 7.4. The compounds under test were dissolved in 50% DMSO and the final concentrations of ethanol and DMSO were 1% each. The assay reaction was carried out for 1 hour and was terminated by the addition of 2 vols. of methanol-acetonitrile (2:1) containing approx. 100 μM unlabelled progesterone, 17α-hydroxyprogesterone, androstenedione, testosterone, and 16α-hydroxyprogesterone.\nThe separation of the steroids by HPLC was carried out using an \"Uptight\" guard column packed with 40-63 μm Nucleosil C18 and a 10 cm main column packed with 5 μm Nucleosil C18 and 60% methanol as eluant. The radioactivity in the peaks of interest was monitored on-line by mixing the HPLC effluent 1:1 with Ecoscint A (National Diagnostics) scintillation fluid, containing 25% acetonitrile, and passing the mixture through a Berthold LB506C radiochemical monitor. The hydroxylase activity was measured as the production of 17α-hydroxyprogesterone, androstenedione and testosterone.\nThe enzyme activity was measured in the presence of at least 4 concentrations of each compound. […]"}, "C17-C20 lyase": {"molecular_target": "T2, C17-C20 lyase (Homo sapiens, UniProt P05093)", "T2 construct": "A microsomal preparation was prepared essentially as described by S. E. Barrie et al; from tissue; host or cells: human testis microsomes", "T2 sequence (P05093 1-508)": "T1 sequence (P05093 1-508)", "assay": "Determination of C17-C20 lyase inhibition (human testicular microsomes, 3H-17α-hydroxyprogesterone substrate)", "format": "biochemical", "details": "for concentration required to achieve 50% inhibition of lyase, compared with the 3-pyridyl (in words): relative to 3-pyridyl compound", "description": "as §2, §3\nThe mixture was the same as described above for the 17αt-hydroxylase except that the substrate was ^3 H-17α-hydroxy- progesterone.\nThe HPLC separation used for the lyase involved a mini-re-column \"Uptight Guard Column\" packed with PELL-ODS (pellicular octadecyl silica) and a 10 cm. main column \"Apex C18\" column packed with 5 μ, APEX-CAT silica.\nThe eluant was 38:12:50 methanol:acetonitrile:water flowing at 1 ml/min. The effluent was mixed 1:1 with Ecoscint A containing 5% methanol and 5% acetonitrile and the radioactivity was measured directly by a Berthold LB506C radiochemical detector. The lyase activity was measured as the production of androstenedione and testosterone.\nThe enzyme activity was measured in the presence of at least 4 concentrations of each compound. […] Data for all the other compounds were fitted by non-linear regression to the median effect equation of Chou, J. Theoret."}, "aromatase": {"molecular_target": "T3, aromatase (Homo sapiens, UniProt P11511)", "T3 construct": "using human placental microsomes; from tissue; host or cells: human placental microsomes", "T3 sequence (P11511 1-503)": "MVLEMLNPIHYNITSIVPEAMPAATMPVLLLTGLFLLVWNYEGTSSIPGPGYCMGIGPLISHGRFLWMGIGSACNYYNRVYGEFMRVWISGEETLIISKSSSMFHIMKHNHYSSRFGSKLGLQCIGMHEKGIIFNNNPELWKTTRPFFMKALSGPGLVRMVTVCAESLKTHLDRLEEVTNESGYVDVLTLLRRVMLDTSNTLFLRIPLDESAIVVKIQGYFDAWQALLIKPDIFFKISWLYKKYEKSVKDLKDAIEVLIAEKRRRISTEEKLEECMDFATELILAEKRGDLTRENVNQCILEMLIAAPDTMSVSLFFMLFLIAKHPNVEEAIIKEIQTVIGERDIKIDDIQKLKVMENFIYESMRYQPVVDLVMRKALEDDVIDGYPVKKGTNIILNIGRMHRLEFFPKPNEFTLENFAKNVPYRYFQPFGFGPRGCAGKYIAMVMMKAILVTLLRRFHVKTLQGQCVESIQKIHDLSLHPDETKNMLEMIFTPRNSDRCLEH", "format": "biochemical", "details": "human placental microsomes used; read-out: Michaelis constant Km", "description": "Aromatase activity was determined by the method of A. B. Foster et all., J. Med. Chem. 26, 50-54 (1983), using human placental microsomes."}, "[2]": {"test_system": "testosterone and luteinising hormone", "assay": "In vivo endocrine test in mice (plasma testosterone and LH by RIA)", "set-up": "species or system mice (male HWT)", "details": "2 weeks", "description": "Male HWT mice, 12 weeks old, were treated daily for 2 weeks, with 5 animals per treatment group. […] The test compounds were made up in 5% benzyl alcohol, 95% safflower oil, and were given i.p.. In addition to an untreated control group of animals, there was also a solvent control group which received the same volume of liquid as the test group (5 ml/kg) but no test compound. All animals were sacrificed 24 hours after the last injection. Blood was collected by cardiac puncture into heparinized tubes, and the plasma used for RIA (radio immunoassay) of testosterone and luteinising hormone."}}, "note": "Where two headings read alike, the source gives them in different places."}
{"smiles": "CC(=O)N1CCN(c2ccc(OCC3COC(Cn4ccnc4)(c4ccc(Cl)cc4Cl)O3)cc2)CC1", "note": "(centres unmarked) [Ketoconazole]", "values": [{"measurement": "post mortem examination: gut and peritoneal wall", "setting": "[1]", "value": "seemed to be stuck to the seminal vesicles"}, {"measurement": "effect on adrenal weight (in words)", "setting": "Male HWT mice; mouse, in vivo", "value": "increase in adrenal weight"}]}
{"smiles": "C[C@]12CC[C@H](O)CC1=CC[C@@H]1[C@@H]2CC[C@]2(C)C(c3ccccn3)=CC[C@@H]12", "note": "[Example 2-Pyridyl]", "values": [{"measurement": "concentration required to achieve 50% inhibition of hydroxylase, compared with the 3-pyridyl (in words)", "setting": "17α-Hydroxylase", "value": "far greater"}, {"measurement": "concentration required to achieve 50% inhibition of lyase, compared with the 3-pyridyl (in words)", "setting": "C17-C20 lyase", "value": "far greater"}]}
{"smiles": "C[C@]12CCC(=O)C=C1[C@@H](F)C[C@@H]1[C@@H]2CC[C@]2(C)C(c3cccnc3)=CC[C@@H]12", "note": "[Example 12, 6α-Fluoro-17-(3-pyridyl)androsta-4,16-dien-3-one]", "values": [{"measurement": "IC50", "setting": "C17-C20 lyase; Table 2, approx. 4 nM enzyme, listed as Ex. 12", "value": 2.2, "unit": "nM"}]}
{"smiles": "C[C@]12CC[C@H](O)CC1=CC[C@@H]1[C@@H]2CC[C@]2(C)C(c3ccncc3)=CC[C@@H]12", "note": "[Example 4-pyridyl]", "values": [{"measurement": "concentration required to achieve 50% inhibition of hydroxylase, compared with the 3-pyridyl (in words)", "setting": "17α-Hydroxylase", "value": "far greater"}, {"measurement": "concentration required to achieve 50% inhibition of lyase, compared with the 3-pyridyl (in words)", "setting": "C17-C20 lyase", "value": "far greater"}]}
{"smiles": "C[C@]12CCC(=O)C=C1CC[C@@H]1[C@@H]2CC[C@]2(C)C(c3cccnc3)=CC[C@@H]12", "note": "[Example 4, 17-(3-Pyridyl)androsta-4,16-dien-3-one]", "values": [{"measurement": "post mortem examination: appearance of organs", "setting": "[1]", "value": "all organs looked normal"}, {"measurement": "post mortem examination: deposits", "setting": "[1]", "value": "white deposits throughout the abdomen"}]}
{"smiles": "C[C@]12CC[C@H](O)CC1=CC[C@@H]1[C@@H]2CC[C@]2(C)C(Cc3ccccn3)=CC[C@@H]12", "note": "[Example 2-picolyl]", "values": [{"measurement": "concentration required to achieve 50% inhibition of hydroxylase, compared with the 3-pyridyl (in words)", "setting": "17α-Hydroxylase", "value": "far greater"}, {"measurement": "concentration required to achieve 50% inhibition of lyase, compared with the 3-pyridyl (in words)", "setting": "C17-C20 lyase", "value": "far greater"}]}
{"smiles": "[3H][C@@H]1CC(=O)C=C2CC[C@@H]3[C@H](CC[C@]4(C)C(=O)CC[C@@H]34)[C@]21C", "note": "[[1β-^3 H]androstenedione]", "values": [{"measurement": "Km", "setting": "aromatase", "value": 0.039, "unit": "µM"}]}
{"smiles": "CC(=O)O[C@H]1CC[C@@]2(C)C(=CC[C@@H]3[C@@H]2CC[C@]2(C)C(c4cccnc4)=CC[C@@H]32)C1", "note": "[Example 1, 3β-acetoxy-17-(3-pyridyl)androsta-5,16-diene]", "values": [{"measurement": "post mortem examination: appearance of organs", "setting": "[1]", "value": "all organs looked normal"}, {"measurement": "post mortem examination: deposits", "setting": "[1]", "value": "oil/white deposits i.p."}, {"measurement": "Testosterone (mean ± standard error)", "setting": "[2]; 0.02 mmol/kg/day i.p.", "value": "2.7 ± 0.5", "unit": "nM"}, {"measurement": "Testosterone (mean ± standard error)", "setting": "[2]; 0.1 mmol/kg/day i.p.", "value": "0.2 ± 0.1", "unit": "nM"}, {"measurement": "Testosterone (mean ± standard error)", "setting": "[2]; 0.5 mmol/kg/day i.p.", "value": "0.1 ± 0.0", "unit": "nM"}, {"measurement": "Kidneys mean weight ± standard error", "setting": "Male HWT mice; 0.02 mmol/kg/day i.p.", "value": "604 ± 24", "unit": "mg"}, {"measurement": "Kidneys mean weight ± standard error", "setting": "Male HWT mice; 0.1 mmol/kg/day i.p.", "value": "500 ± 8", "unit": "mg"}, {"measurement": "Kidneys mean weight ± standard error", "setting": "Male HWT mice; 0.5 mmol/kg/day i.p.", "value": "449 ± 12", "unit": "mg"}]}
